From patent publication US20210267923A1, “SUCCINIC ACID AND DERIVATIVES FOR THE TREATMENT OF HAEMOTOLOGICAL DISORDERS” (ENZENE BIOSCIENCES LIMITED, priority 2018, published 2021)

Tests used:
[1] = tested on: TF-1 cells; test: In-vitro bioassay in TF1 cell lines (proliferation, alamar Blue); details: treated 48 h without rhGMCSF, normalized to cell control
[2] = tested on: TF-1 cells; details: normalised to untreated cells (CC), triplicates
Method: For RNA-seq analysis, TF-1 cells were either treated with the positive control GMCSF (GM) or with succinate (E01). Untreated TF-1 cells (CC) were used as a control to determine basal gene expression. RNA-seq was performed in triplicates from all the three groups. The gene expression from E01 or GM group was normalised to the expression of CC.

[3] = tested on: WI38 cells; details: WI38 fibroblasts, mitogen-deprived medium (0.1% FBS), 48 h in presence of succinate
[4] = tested on: platelet counts; details: rats, 100 mg/kg twice daily P.O. for 7 days, versus water control
Method: A preliminary study was conducted in rats using pure succinic acid (from commercial source). Six animals were used in each group (control and treated). The treated group received a dose of 100 mg/kg succinic acid twice daily P.O. whereas the control group received water of same volume as in treated twice daily. CBC (Complete Blood counts) was performed from the blood withdrawn from individual rats.

O=C([O-])CCC(=O)[O-].[Ca+2] [Ca salt of succinic acid]
cellular proliferation in TF-1 cells [1]: showed proliferation activity

O=C([O-])CCC(=O)[O-].[Mg+2] [Mg salt of succinic acid]
cellular proliferation in TF-1 cells [1]: showed proliferation activity

O=C([O-])CCC(=O)[O-].[Na+].[Na+] [Sodium Succinate]
cellular proliferation in TF-1 cells ([1]; listed as Na salt of succinic acid): showed proliferation activity

O=C(O)CCC(=O)O [succinate]
gene expression changes (RNA-seq) [2]: Several genes related to platelet differentiation pathway in succinate treated cells were identified
cell cycle entry from quiescence [3]: entered in the cell cycle even in the absence of mitogens

O=C(O)CCC(=O)O [succinic acid, Succinic acid]
cellular proliferation in TF-1 cells [1]: dose dependent proliferation was observed
platelet counts [4]: substantially increase the platelet counts
